Measurements as given in ChEMBL document CHEMBL1137194, “Possible differences in modes of agonist and antagonist binding at human 5-HT6 receptors” (Bioorg Med Chem Lett, 2004).

Target: 5-hydroxytryptamine receptor 6 (Homo sapiens, UniProt P50406)
Assay: Binding affinity against 5-hydroxytryptamine 6 receptor

Sequence of 5-hydroxytryptamine receptor 6 (P50406 whole entry): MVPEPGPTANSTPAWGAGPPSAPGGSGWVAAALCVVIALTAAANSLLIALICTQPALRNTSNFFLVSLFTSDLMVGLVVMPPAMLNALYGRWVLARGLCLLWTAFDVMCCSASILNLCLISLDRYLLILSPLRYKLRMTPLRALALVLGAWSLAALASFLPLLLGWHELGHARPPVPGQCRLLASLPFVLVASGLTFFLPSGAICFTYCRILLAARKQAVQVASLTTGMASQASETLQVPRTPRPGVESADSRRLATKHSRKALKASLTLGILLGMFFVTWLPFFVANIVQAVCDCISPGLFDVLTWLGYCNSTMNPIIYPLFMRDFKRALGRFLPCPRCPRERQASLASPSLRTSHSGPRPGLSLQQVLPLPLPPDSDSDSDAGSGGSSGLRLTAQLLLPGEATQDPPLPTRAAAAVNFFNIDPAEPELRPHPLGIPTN

| Compound | Ki [nM] |
| --- | --- |
| CN(C)CCc1cn(Cc2ccccc2)c2ccccc12 | 6 |
| CCN(CC)CCc1cn(S(=O)(=O)c2ccccc2)c2ccc(OC)cc12 | 6 |
| CN(C)CC[N+]1=CCc2ccccc21 | 1900 |
| CCCc1c(CCN(C)C)c2cc(OC)ccc2n1S(=O)(=O)c1ccccc1 | 2.3 |
| CN(C)CCn1ccc2ccccc21 | > 5000 |
| CN(C)CCN1CCc2ccccc21 | > 5000 |
| CN(C)CCC1=CC(Cc2ccccc2)c2ccccc21 (centres undefined) | 3 |
| COc1ccc2c(c1)c(CCN(C)C)cn2S(=O)(=O)c1ccccc1 | 2 |
| COc1ccc2c(c1)c(CCN(C)C)cn2S(=O)(=O)c1ccc(N)cc1 | 0.6 |
